Laboratory results as given in ChEMBL document CHEMBL1201861, “Genomics of Drug Sensitity in Cancer screening data, Wellcome Trust Sanger Institute”.

System: MDA-MB-415
Experiment: cells
Type: functional, cell-based
Conditions: Homo sapiens

| SMILES | IC50 |
| --- | --- |
| C/C(=C\c1csc(C)n1)[C@@H]1C[C@@H]2O[C@]2(C)CCC[C@H](C)[C@H](O)[C@@H](C)C(=O)C(C)(C)[C@@H](O)CC(=O)O1 [PATUPILONE] | 20 nM |

System: CP66-MEL;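 also: growth inhibition of CP66-MEL cells determined in a cell viability assay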
Experiment: cells
Type: functional, cell-based
Conditions: Homo sapiens
Description: SANGER: Inhibition of human CP66-MEL cell growth in a cell viability assay.

| SMILES | IC50 |
| --- | --- |
| C/C(=C\c1csc(C)n1)[C@@H]1C[C@@H]2O[C@]2(C)CCC[C@H](C)[C@H](O)[C@@H](C)C(=O)C(C)(C)[C@@H](O)CC(=O)O1 [PATUPILONE] | 11.7 nM |

System: BL-70
Experiment: SANGER: Inhibition of human BL-70 cell growth in a cell viability assay.
Type: functional, cell-based
Conditions: Homo sapiens, BL-70

| SMILES | IC50 |
| --- | --- |
| C/C(=C\c1csc(C)n1)[C@@H]1C[C@@H]2O[C@]2(C)CCC[C@H](C)[C@H](O)[C@@H](C)C(=O)C(C)(C)[C@@H](O)CC(=O)O1 [PATUPILONE] | 2.16 nM |

System: CAL-12T;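 also: growth inhibition of human CAL-12T cells, read out with a cell viability assay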
Experiment: cells
Type: functional, cell-based
Conditions: Homo sapiens
Description: SANGER: Inhibition of human CAL-12T cell growth in a cell viability assay.

| SMILES | IC50 |
| --- | --- |
| C/C(=C\c1csc(C)n1)[C@@H]1C[C@@H]2O[C@]2(C)CCC[C@H](C)[C@H](O)[C@@H](C)C(=O)C(C)(C)[C@@H](O)CC(=O)O1 [PATUPILONE] | 0.239 nM |

System: BT-20;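 also: cell viability assay measuring suppression of growth in human BT-20 cells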
Experiment: cells
Type: functional, cell-based
Conditions: Homo sapiens
Description: SANGER: Inhibition of human BT-20 cell growth in a cell viability assay.

| SMILES | IC50 |
| --- | --- |
| C/C(=C\c1csc(C)n1)[C@@H]1C[C@@H]2O[C@]2(C)CCC[C@H](C)[C@H](O)[C@@H](C)C(=O)C(C)(C)[C@@H](O)CC(=O)O1 [PATUPILONE] | 5.1 nM |

System: HT-1080
Experiment: cells
Type: functional, cell-based
Conditions: Homo sapiens
Description: SANGER: Inhibition of human HT-1080 cell growth in a cell viability assay.

| SMILES | IC50 |
| --- | --- |
| C/C(=C\c1csc(C)n1)[C@@H]1C[C@@H]2O[C@]2(C)CCC[C@H](C)[C@H](O)[C@@H](C)C(=O)C(C)(C)[C@@H](O)CC(=O)O1 [PATUPILONE] | 0.842 nM |

System: 8505C
Experiment: cells
Type: functional, cell-based
Conditions: Homo sapiens
Description: SANGER: Inhibition of human 8505C cell growth in a cell viability assay.

| SMILES | IC50 |
| --- | --- |
| C/C(=C\c1csc(C)n1)[C@@H]1C[C@@H]2O[C@]2(C)CCC[C@H](C)[C@H](O)[C@@H](C)C(=O)C(C)(C)[C@@H](O)CC(=O)O1 [PATUPILONE] | 0.451 nM |

System: NCI-H2171;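 also: growth inhibition of human NCI-H2171 cells, read out by a cell viability assay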
Experiment: cells
Type: functional, cell-based, Homo sapiens
Conditions: Homo sapiens, NCI-H2171
Description: SANGER: Inhibition of human NCI-H2171 cell growth in a cell viability assay.

| SMILES | IC50 |
| --- | --- |
| C/C(=C\c1csc(C)n1)[C@@H]1C[C@@H]2O[C@]2(C)CCC[C@H](C)[C@H](O)[C@@H](C)C(=O)C(C)(C)[C@@H](O)CC(=O)O1 [PATUPILONE] | 9.62 nM |

System: SJRH30;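 also: growth inhibition of human SJRH30 cells, read out with a cell viability assay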
Experiment: cells
Type: functional, cell-based
Conditions: Homo sapiens
Description: SANGER: Inhibition of human SJRH30 cell growth in a cell viability assay.

| SMILES | IC50 |
| --- | --- |
| C/C(=C\c1csc(C)n1)[C@@H]1C[C@@H]2O[C@]2(C)CCC[C@H](C)[C@H](O)[C@@H](C)C(=O)C(C)(C)[C@@H](O)CC(=O)O1 [PATUPILONE] | 12.9 nM |

System: COLO-678
Experiment: cells
Type: functional, cell-based
Conditions: Homo sapiens
Description: SANGER: Inhibition of human COLO-678 cell growth in a cell viability assay.

| SMILES | IC50 |
| --- | --- |
| C/C(=C\c1csc(C)n1)[C@@H]1C[C@@H]2O[C@]2(C)CCC[C@H](C)[C@H](O)[C@@H](C)C(=O)C(C)(C)[C@@H](O)CC(=O)O1 [PATUPILONE] | > 32 nM |

System: NCI-H345;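 also: growth inhibition of NCI-H345 cells measured with a cell viability assay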
Experiment: cells
Type: functional, cell-based, Homo sapiens
Conditions: Homo sapiens, NCI-H345
Description: SANGER: Inhibition of human NCI-H345 cell growth in a cell viability assay.

| SMILES | IC50 |
| --- | --- |
| C/C(=C\c1csc(C)n1)[C@@H]1C[C@@H]2O[C@]2(C)CCC[C@H](C)[C@H](O)[C@@H](C)C(=O)C(C)(C)[C@@H](O)CC(=O)O1 [PATUPILONE] | > 32 nM |

System: SK-MM-2;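 also: growth inhibition of human SK-MM-2 cells, read out with a cell viability assay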
Experiment: cells
Type: functional, cell-based, Homo sapiens
Conditions: Homo sapiens, SK-MM-2
Description: SANGER: Inhibition of human SK-MM-2 cell growth in a cell viability assay.

| SMILES | IC50 |
| --- | --- |
| C/C(=C\c1csc(C)n1)[C@@H]1C[C@@H]2O[C@]2(C)CCC[C@H](C)[C@H](O)[C@@H](C)C(=O)C(C)(C)[C@@H](O)CC(=O)O1 [PATUPILONE] | 17.3 nM |

System: NCI-H1522;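 also: growth inhibition of NCI-H1522 cells, read out with a cell viability assay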
Experiment: cells
Type: functional, cell-based, Homo sapiens
Conditions: Homo sapiens, NCI-H1522
Description: SANGER: Inhibition of human NCI-H1522 cell growth in a cell viability assay.

| SMILES | IC50 |
| --- | --- |
| C/C(=C\c1csc(C)n1)[C@@H]1C[C@@H]2O[C@]2(C)CCC[C@H](C)[C@H](O)[C@@H](C)C(=O)C(C)(C)[C@@H](O)CC(=O)O1 [PATUPILONE] | > 32 nM |

System: PANC-03-27
Experiment: cells
Type: functional, cell-based
Conditions: Homo sapiens
Description: SANGER: Inhibition of human PANC-03-27 cell growth in a cell viability assay.

| SMILES | IC50 |
| --- | --- |
| C/C(=C\c1csc(C)n1)[C@@H]1C[C@@H]2O[C@]2(C)CCC[C@H](C)[C@H](O)[C@@H](C)C(=O)C(C)(C)[C@@H](O)CC(=O)O1 [PATUPILONE] | 0.132 nM |

System: SW756;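 also: growth inhibition of human SW756 cells, read out with a cell viability assay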
Experiment: cells
Type: functional, cell-based
Conditions: Homo sapiens
Description: SANGER: Inhibition of human SW756 cell growth in a cell viability assay.

| SMILES | IC50 |
| --- | --- |
| C/C(=C\c1csc(C)n1)[C@@H]1C[C@@H]2O[C@]2(C)CCC[C@H](C)[C@H](O)[C@@H](C)C(=O)C(C)(C)[C@@H](O)CC(=O)O1 [PATUPILONE] | > 32 nM |

System: COLO-680N;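 also: cell viability assay used to measure inhibition of COLO-680N cell growth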
Experiment: cells
Type: functional, cell-based
Conditions: Homo sapiens
Description: SANGER: Inhibition of human COLO-680N cell growth in a cell viability assay.

| SMILES | IC50 |
| --- | --- |
| C/C(=C\c1csc(C)n1)[C@@H]1C[C@@H]2O[C@]2(C)CCC[C@H](C)[C@H](O)[C@@H](C)C(=O)C(C)(C)[C@@H](O)CC(=O)O1 [PATUPILONE] | 7.16 nM |

System: COR-L105
Experiment: cells
Type: functional, cell-based
Conditions: Homo sapiens
Description: SANGER: Inhibition of human COR-L105 cell growth in a cell viability assay.

| SMILES | IC50 |
| --- | --- |
| C/C(=C\c1csc(C)n1)[C@@H]1C[C@@H]2O[C@]2(C)CCC[C@H](C)[C@H](O)[C@@H](C)C(=O)C(C)(C)[C@@H](O)CC(=O)O1 [PATUPILONE] | 9.54 nM |

System: Hs-578T
Experiment: cells
Type: functional, cell-based
Conditions: Homo sapiens
Description: SANGER: Inhibition of human Hs-578-T cell growth in a cell viability assay.

| SMILES | IC50 |
| --- | --- |
| C/C(=C\c1csc(C)n1)[C@@H]1C[C@@H]2O[C@]2(C)CCC[C@H](C)[C@H](O)[C@@H](C)C(=O)C(C)(C)[C@@H](O)CC(=O)O1 [PATUPILONE] | > 32 nM |

System: MC-CAR;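 also: growth inhibition of the human MC-CAR cell line, read out by a cell viability assay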
Experiment: cells
Type: functional, cell-based, Homo sapiens
Conditions: Homo sapiens, MC-CAR
Description: SANGER: Inhibition of human MC-CAR cell growth in a cell viability assay.

| SMILES | IC50 |
| --- | --- |
| C/C(=C\c1csc(C)n1)[C@@H]1C[C@@H]2O[C@]2(C)CCC[C@H](C)[C@H](O)[C@@H](C)C(=O)C(C)(C)[C@@H](O)CC(=O)O1 [PATUPILONE] | 9.73 nM |

System: SKG-IIIa;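 also: cell growth inhibition, read out with a cell viability assay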
Experiment: cells
Type: functional, cell-based
Conditions: Homo sapiens
Description: SANGER: Inhibition of human SKG-IIIa cell growth in a cell viability assay.

| SMILES | IC50 |
| --- | --- |
| C/C(=C\c1csc(C)n1)[C@@H]1C[C@@H]2O[C@]2(C)CCC[C@H](C)[C@H](O)[C@@H](C)C(=O)C(C)(C)[C@@H](O)CC(=O)O1 [PATUPILONE] | > 32 nM |

System: YAPC;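 also: growth inhibition of YAPC cells, measured with a cell viability assay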
Experiment: cells
Type: functional, cell-based
Conditions: Homo sapiens
Description: SANGER: Inhibition of human YAPC cell growth in a cell viability assay.

| SMILES | IC50 |
| --- | --- |
| C/C(=C\c1csc(C)n1)[C@@H]1C[C@@H]2O[C@]2(C)CCC[C@H](C)[C@H](O)[C@@H](C)C(=O)C(C)(C)[C@@H](O)CC(=O)O1 [PATUPILONE] | > 32 nM |

System: AN3-CA;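 also: growth inhibition of human AN3-CA cells measured by a cell viability assay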
Experiment: cells
Type: functional, cell-based
Conditions: Homo sapiens
Description: SANGER: Inhibition of human AN3-CA cell growth in a cell viability assay.

| SMILES | IC50 |
| --- | --- |
| C/C(=C\c1csc(C)n1)[C@@H]1C[C@@H]2O[C@]2(C)CCC[C@H](C)[C@H](O)[C@@H](C)C(=O)C(C)(C)[C@@H](O)CC(=O)O1 [PATUPILONE] | 0.452 nM |

System: HSC-4;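 also: growth inhibition of human HSC-4 cells, read out with a cell viability assay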
Experiment: cells
Type: functional, cell-based
Conditions: Homo sapiens
Description: SANGER: Inhibition of human HSC-4 cell growth in a cell viability assay.

| SMILES | IC50 |
| --- | --- |
| C/C(=C\c1csc(C)n1)[C@@H]1C[C@@H]2O[C@]2(C)CCC[C@H](C)[C@H](O)[C@@H](C)C(=O)C(C)(C)[C@@H](O)CC(=O)O1 [PATUPILONE] | 29.9 nM |

System: HCC1419;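 also: growth inhibition of human HCC1419 cells, read out as cell viability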
Experiment: cells
Type: functional, cell-based
Conditions: Homo sapiens
Description: SANGER: Inhibition of human HCC1419 cell growth in a cell viability assay.

| SMILES | IC50 |
| --- | --- |
| C/C(=C\c1csc(C)n1)[C@@H]1C[C@@H]2O[C@]2(C)CCC[C@H](C)[C@H](O)[C@@H](C)C(=O)C(C)(C)[C@@H](O)CC(=O)O1 [PATUPILONE] | > 32 nM |

System: NCI-H2009;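 also: cell viability assay measuring inhibition of NCI-H2009 cell growth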
Experiment: cells
Type: functional, cell-based
Conditions: Homo sapiens
Description: SANGER: Inhibition of human NCI-H2009 cell growth in a cell viability assay.

| SMILES | IC50 |
| --- | --- |
| C/C(=C\c1csc(C)n1)[C@@H]1C[C@@H]2O[C@]2(C)CCC[C@H](C)[C@H](O)[C@@H](C)C(=O)C(C)(C)[C@@H](O)CC(=O)O1 [PATUPILONE] | 0.862 nM |

System: NUGC-3;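 also: growth inhibition of human NUGC-3 cells, read out with a cell viability assay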
Experiment: cells
Type: functional, cell-based
Conditions: Homo sapiens
Description: SANGER: Inhibition of human NUGC-3 cell growth in a cell viability assay.

| SMILES | IC50 |
| --- | --- |
| C/C(=C\c1csc(C)n1)[C@@H]1C[C@@H]2O[C@]2(C)CCC[C@H](C)[C@H](O)[C@@H](C)C(=O)C(C)(C)[C@@H](O)CC(=O)O1 [PATUPILONE] | 1.16 nM |

System: G-361
Experiment: cells
Type: functional, cell-based
Conditions: Homo sapiens

| SMILES | IC50 |
| --- | --- |
| C/C(=C\c1csc(C)n1)[C@@H]1C[C@@H]2O[C@]2(C)CCC[C@H](C)[C@H](O)[C@@H](C)C(=O)C(C)(C)[C@@H](O)CC(=O)O1 [PATUPILONE] | 0.701 nM |

System: DBTRG-05MG;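 also: cell viability assay measuring growth inhibition of human DBTRG-05MG cells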
Experiment: cells
Type: functional, cell-based
Conditions: Homo sapiens
Description: SANGER: Inhibition of human DBTRG-05MG cell growth in a cell viability assay.

| SMILES | IC50 |
| --- | --- |
| C/C(=C\c1csc(C)n1)[C@@H]1C[C@@H]2O[C@]2(C)CCC[C@H](C)[C@H](O)[C@@H](C)C(=O)C(C)(C)[C@@H](O)CC(=O)O1 [PATUPILONE] | 5.86 nM |

System: TE-441-T
Experiment: cells
Type: functional, cell-based, Homo sapiens
Conditions: Homo sapiens, TE-441-T
Description: SANGER: Inhibition of human TE-441-T cell growth in a cell viability assay.

| SMILES | IC50 |
| --- | --- |
| C/C(=C\c1csc(C)n1)[C@@H]1C[C@@H]2O[C@]2(C)CCC[C@H](C)[C@H](O)[C@@H](C)C(=O)C(C)(C)[C@@H](O)CC(=O)O1 [PATUPILONE] | 26.3 nM |
